Laboratory results published in US20020025940A1, “Methods and compositions for sensitive and rapid, functional identification of genomic polynucleotides and use for cellular assays in drug discovery” (Aurora Biosciences Corporation, priority 1997, published 2002).

Legend:
J389PT14/pcDNA3 = experiment: Beta-lactamase expression in control cell line J389PTI4/pcDNA3; format: cell-based, human; conditions: 30 μM Carbachol, 10 nM PHA, 6 hours, unstimulated = 1
Method: (§1) For example, a calcium-sensitive clone was transfected with a Gq-type GPCR by electroporation. Cells from clone J389PT14 were transfected by electroporation with a plasmid (pcDNA3 (Invitrogen) or pcDNA3-M1 (pcDNA3 that can operably express M1 receptor) to make cell lines J389PTI4/pcDNA3 and J389PTI4/pcDNA3-Ml). […] Thus, the J389PTI4/pcDNA3 cell is a control cell. […] These cells were contacted with CCF-2 dye for another 90 minutes. The 460/530 ratio changes were measured in a Cytoflour (Series 4000 Model) (Perceptive Biosystems) fluorescence plate reader and correspond to reporter gene expression.

M1 receptor = target: T1, M1 receptor (Homo sapiens, UniProt P11229); format: cell-based; conditions: cell line J389PT14/pcDNA3-M1; 30 μM Carbachol, 10 nM PHA; 6 hours; unstimulated = 1
T1 construct: expressed in transfected cells; host or cells: Jurkat-derived BLEC clone J389PT14, transiently transfected by electroporation with pcDNA3-M1
Method: as §1

T1 sequence (P11229 whole entry): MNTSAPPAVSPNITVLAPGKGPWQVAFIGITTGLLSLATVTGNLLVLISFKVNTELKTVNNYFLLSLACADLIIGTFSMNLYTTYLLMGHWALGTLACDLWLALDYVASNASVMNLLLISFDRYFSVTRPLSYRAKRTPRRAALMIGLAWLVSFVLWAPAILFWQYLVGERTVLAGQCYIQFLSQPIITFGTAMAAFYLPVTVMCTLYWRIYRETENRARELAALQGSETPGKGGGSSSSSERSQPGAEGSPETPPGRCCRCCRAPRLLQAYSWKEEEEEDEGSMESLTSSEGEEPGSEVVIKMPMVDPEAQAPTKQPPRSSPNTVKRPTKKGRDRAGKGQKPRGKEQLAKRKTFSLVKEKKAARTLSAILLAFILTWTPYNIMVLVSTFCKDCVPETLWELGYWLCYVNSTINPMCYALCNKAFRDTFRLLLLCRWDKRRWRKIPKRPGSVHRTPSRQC

For phytohemaglutinin [PHA], the “Relative expression of beta-lactamase in cells exposed to the indicated stimuli” value (J389PT14/pcDNA3) was 12 and the “Relative expression of beta-lactamase in cells exposed to the indicated stimuli” value (M1 receptor) was 13.
